Like-named read-outs stand apart in the source and are kept apart here.
Experiments:
[1] = Stopped-flow tyrosine fluorescence, Ca^2+ dissociation from S100A4 constructs; format: binding
Description: Stopped-flow measurements were carried out using an SX18-MV apparatus (Applied Photophysics Ltd., Leatherhead, UK) with a dead time of 1.5 ms.[40] Records were generally captured on a logarithmic time base. Absorption (turbidity) measurements were usually recorded using a 10-mm pathlength, while fluorescence was recorded with a 2-mm pathlength for excitation and emission. The stated concentrations of components refer to the reaction chamber after mixing, unless otherwise indicated. Tyrosine fluorescence was excited at 280 nm, and the emission was collected through a UG11 bandpass filter plus a 305-nm longpass filter.[18] Fluorescein fluorescence was excited at 480 nm, and the emission was detected through a 515-nm longpass filter. Quin-2 fluorescence was measured by excitation at 336 nm, and emission was collected with a 455-nm longpass filter. For simultaneous recording of light scatter, a second channel was monitored through a UG11 filter. Rate constants were obtained by fitting to single-exponential or double-exponential functions using Kaleidagraph (Synergy Software) or Applied Photophysics Pro-Data software. Modeling of kinetic schemes was performed using Berkeley Madonna software.
Dissociation of Ca2+ from wild type S100A4 (black), Y19F mutant (blue) and Y75F mutant (red) monitored by tyrosine fluorescence. 13 M of each S100A4 construct plus 100 µM Ca2+ was mixed with 200 µM EGTA (reaction chamber concentrations) and the tyrosine fluorescence monitored. The buffer was 20 mM NaCl, 10 mM HEPES, 2 mM DTT at pH 7.5 and 20 °C. Fits to a single exponential function yielded rate constants of 20 s-1, 113 s-1 and 45 s-1 for wild-type, Y19F mutant and Y75F mutant respectively. (d) Dissociation of Ca2+ from wild type S100A4 (black), E33Q mutant (blue) and D63N mutant (red) monitored by tyrosine fluorescence. 13 M of each S100A4 construct plus 15 M Ca2+ was mixed with 200 M EGTA (reaction chamber concentrations) and the tyrosine fluorescence monitored. Fits to a single exponential function yielded rate constants of 22 s-1 and 49 s-1 for wild-type and E33Q construct respectively, while that […]
The records for the mutants were vertically offset for clarity in both […]

M200 filaments = test: Stopped-flow turbidity, dissociation of M200 filaments on NaCl jump or dilution; format: biochemical, human
Description: Fig. 9 Dissociation of M200 filaments by S100A4. (a) Initially, M200 was added (i) from a concentrated stock in 0.5 M NaCl to give a final concentration of 5 μM M200 (with respect to the polypeptide chain) in 100 mM NaCl, 10 mM Hepes, and 0.1 mM Ca^2+ at pH 7.5 and 20 °C. A biphasic rise in turbidity was recorded for 200 s (continuous line). Then 10 μM S100A4 (with respect to monomer concentration) was added (ii), followed by 0.2 mM EGTA (iii) and 1 mM Ca^2+ (iv). […] (b) M200 was diluted (i) into 100 mM NaCl to form filaments as in (a), then 5 μM S100A4 was added (ii), causing a 54% drop in turbidity. A further 5 μM S100A4 (iii) caused turbidity to fall to almost zero. (c) Stopped-flow records monitoring the dissociation of 5 μM M200 filaments on jumping [NaCl] from 100 mM to 120 mM NaCl. Other components of the buffer were 20 mM Hepes, 1 mM Mg^2+, and 100 μM Ca^2+ at pH 7.5 and 20 °C. […] In the presence of 20 μM S100A4 (lower trace), the turbidity decreased by 87% with a rate constant of 0.2 s^− 1.
It is of interest to know whether S100A4 drives depolymerisation solely by binding to free M monomer and allowing the polymer equilibrium to readjust (i.e., via k− 4 and k5), or whether S100A4 also binds to the filament bundle and actively depolymerises an M200 unit (via k6 and k− 7). […] In an attempt to address this question, the dissociation rate of the M200 filament was followed on jumping the NaCl concentration from 100 mM to 120 mM in the absence and in the presence of S100A4 (Fig. 9c). Under these conditions in the absence of S100A4, turbidity dropped to about 50% of its initial value with a profile fitted to a double exponential (k1obs = 0.33 s^− 1 with 12% amplitude and k2obs = 0.037 s^− 1 with 43% amplitude, relative to the total amplitude expected for a full dissociation). Therefore, at the end point of this reaction, the filament concentration decreased by about 2-fold (turbidity is proportional to concentration over this range; Fig. S5b). There should also be a corresponding rise in M200 monomer concentration, but this may be less than accounted for by the loss of filaments if the drop in turbidity was also associated with a rise in small M200 oligomers with a lower specific turbidity. […]

[2] = cited from earlier work
Description: S100A4 contains two tyrosine residues (one in each of the EF-hand domains), and mutating each in turn to phenylalanine enabled us to identify the source of the signal change. […] Ca^2+ binds to the S100A4 dimer with an affinity of around 2–6 μM. […] Regarding the assignment of the sites to EF1 or EF2, the E33Q mutant appears more similar to wild-type S100A4 than the D63N mutant and has an intact EF2 site, as determined by tyrosine and Quin-2 fluorescence (Fig. 3a; ...

In the case of “S100A4: recombinant S100A4 expressed in E. coli BL21(DE3)”, the “Ca^2+ dissociation rate constant (tyrosine)” value ([1]; 13 μM S100A4 + 15 μM Ca^2+ mixed with 200 μM EGTA) is reported as 22 s^− 1, the “Ca^2+ dissociation rate constant (tyrosine)” value ([1]; 13 μM S100A4 + 100 μM Ca^2+ mixed with 200 μM EGTA, 20 mM NaCl, 10 mM Hepes, 2 mM DTT, pH 7.5, 20 °C) is reported as 20 s^− 1 and the “decrease in turbidity on NaCl jump” value (M200 filaments; 20 μM S100A4, 5 μM M200, 100 to 120 mM NaCl) is reported as 87%. The “initial rate relative to absence of S100A4” value (M200 filaments; 20 μM S100A4, NaCl jump) was “five times faster than in the absence of S100A4”, the “kobs, biphasic fit” value (M200 filaments; 20 μM S100A4, NaCl jump) was 0.21 s^− 1 and the “rate constant (single exponential)” value (M200 filaments; 20 μM S100A4, NaCl jump) was 0.19 s^− 1. For the same substance, the “Ca^2+ bound per S100A4 monomer” value ([2]; amplitude of tyrosine fluorescence change on addition of Ca^2+) was 1.7 ± 0.18 Ca^2+ bound per S100A4 monomer and the “Ca^2+ dissociation rate constant (tyrosine)” value [2] was 20 s^− 1.
